# Like-named read-outs stand apart in the source and are kept apart here.
# Experiments:
# Human mTOR (FLAG-TOR) = target: T1, Human mTOR (FLAG-TOR) (Homo sapiens, UniProt P42345); assay: Human mTOR kinase assay with purified enzyme, DELFIA format; type: biochemical
# T1 construct: FLAG
# Description: Enzymes are first diluted in kinase assay buffer (10 mM HEPES (pH 7.4), 50 mM NaCl, 50 mM β-glycerophosphate, 10 mM MnCl2, 0.5 mM DTT, 0.25 mM microcystin LR, and 100 mg/mL BSA). To each well, 12 μL of the diluted enzyme is mixed briefly with 0.5 μL test inhibitor or control vehicle dimethylsulfoxide (DMSO). […] The reaction plate is incubated for 2 hours (linear at 1-6 hours) at room temperature with gentle shaking and then terminated by adding 25 μL Stop buffer (20 mM HEPES (pH 7.4), 20 mM EDTA, 20 mM EGTA). […] The DELFIA Assay buffer and Enhancement solution can be purchased from PerkinElmer. 45 μL of the terminated kinase reaction mixture is transferred to a MaxiSorp plate (Nunc) containing 55 μL PBS. The His6-S6K is allowed to attach for 2 hours after which the wells are aspirated and washed once with PBS. 100 μL of DELFIA Assay buffer with 40 ng/mL Eu—P(T389)-S6K antibody is added. The antibody binding is continued for 1 hour with gentle agitation. The wells are then aspirated and washed 4 times with PBS containing 0.05% Tween-20 (PBST). 100 μL of DELFIA Enhancement solution is added to each well and the plates are read in a PerkinElmer Victor model plate reader. Data obtained is used to calculate enzymatic activity and enzyme inhibition by potential inhibitors.
# PI3K [1] = target: T2, PI3K (Homo sapiens, UniProt P48736); assay: Fluorescence polarization assay for PI3K; type: biochemical; conditions: read-out: PI3 Kinase γ IC50
# T2 construct: PI3 Kinase γ IC50; other: PI3 Kinase γ; other: PI3 Kinase γ isoform, fluorescence polarization
# T2 sequence (P48736 whole entry, canonical isoform): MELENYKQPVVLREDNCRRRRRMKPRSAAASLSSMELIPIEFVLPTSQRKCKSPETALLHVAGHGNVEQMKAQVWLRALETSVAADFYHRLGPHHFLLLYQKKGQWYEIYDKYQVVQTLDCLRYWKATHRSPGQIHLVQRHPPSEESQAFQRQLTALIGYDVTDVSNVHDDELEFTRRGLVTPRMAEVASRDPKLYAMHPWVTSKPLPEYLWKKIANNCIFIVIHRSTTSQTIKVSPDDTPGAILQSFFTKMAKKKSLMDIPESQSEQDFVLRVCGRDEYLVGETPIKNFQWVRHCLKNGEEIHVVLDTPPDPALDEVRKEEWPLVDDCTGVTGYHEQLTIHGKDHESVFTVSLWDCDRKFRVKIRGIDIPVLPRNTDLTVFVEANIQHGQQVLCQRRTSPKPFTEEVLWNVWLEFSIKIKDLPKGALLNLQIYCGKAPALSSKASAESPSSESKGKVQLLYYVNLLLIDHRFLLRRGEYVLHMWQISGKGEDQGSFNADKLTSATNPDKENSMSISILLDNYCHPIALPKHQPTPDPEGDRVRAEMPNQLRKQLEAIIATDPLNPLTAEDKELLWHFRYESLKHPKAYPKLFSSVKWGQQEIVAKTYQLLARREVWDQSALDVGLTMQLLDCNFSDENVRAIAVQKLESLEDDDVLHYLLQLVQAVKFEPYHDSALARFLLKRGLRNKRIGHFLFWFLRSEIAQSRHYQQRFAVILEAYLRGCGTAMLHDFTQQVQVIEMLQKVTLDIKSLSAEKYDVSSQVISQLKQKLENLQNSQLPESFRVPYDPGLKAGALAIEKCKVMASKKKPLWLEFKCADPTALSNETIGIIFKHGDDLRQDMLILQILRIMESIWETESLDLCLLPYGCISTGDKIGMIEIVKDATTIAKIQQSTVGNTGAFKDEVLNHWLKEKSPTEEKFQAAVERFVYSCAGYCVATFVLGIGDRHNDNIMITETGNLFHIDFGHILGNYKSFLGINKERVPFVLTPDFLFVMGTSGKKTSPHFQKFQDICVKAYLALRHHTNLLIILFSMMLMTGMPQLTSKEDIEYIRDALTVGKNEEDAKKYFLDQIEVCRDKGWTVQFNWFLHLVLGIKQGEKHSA
# Description: (§1) This assay is used to determine the IC50 of compounds of the present invention as it identifies inhibitors of PI3 kinase by measuring inhibition.
# (§2) The assay is run by placing 5 μL of diluted enzyme per well, then 5 μL of diluted compound (or 9.5 μL enzyme then 0.5 μL compound in DMSO) is added and mixed. Then, 10 μL substrate is added to start the reaction. The samples are incubated 30-60 minutes, then the reaction is stopped by adding 20 μL stop/detector mix. PI3K is diluted with reaction buffer (e.g., 5 μL or 7.5 μL PI3K into 620 μL reaction buffer), and 5 μL of diluted enzyme is used per well. 5 μL reaction buffer or drug diluted in buffer (e.g., 4 μL/100 so final DMSO is 1% in reaction) is added to each. Pipetting up and down mixes the samples. Alternatively, the enzyme can be diluted to 1215 μL. In this case 9.8 μL is added per well and 0.2 μL compound is added in DMSO. To prepare 1 mL of substrate solution, 955 μL reaction buffer, 40 μL PIP2, and 2.5 μL ATP are mixed. 10 μL of substrate is added to each well to start the reaction.
# (§3) Stop/detector mix is prepared by mixing 4 μL Red detector and 1.6 μL or 2.0 μL GST-GRP with 1 mL Stop buffer, which results in 10 nM probe and 70 nM GST-GRP). 20 μL of the stop/detector mix is added to each well to stop the reaction. The plates are read after 30-90 minutes keeping the red probe solutions dark. For the zero time point, stop/detector mix is added to the enzyme just before adding substrate. For an extra control, stop/detector mix is added to buffer (no enzyme) and substrate or to just buffer (no substrate). […] Plates are read on machines with filters for Tamra. The units are mP with no enzyme controls reading app 190-220 mP units. Fully active enzyme reduces fluorescence polarization down to 70-100 mP after 30 minutes.
# PI3K [2] = target: T3, PI3K (Homo sapiens, UniProt P42336); assay: Fluorescence polarization assay for PI3K; type: biochemical; conditions: read-out: PI3 Kinase α IC50
# T3 construct: PI3 Kinase α IC50; other: PI3 Kinase α; other: PI3 Kinase α isoform, fluorescence polarization
# T3 sequence (P42336 whole entry, canonical isoform): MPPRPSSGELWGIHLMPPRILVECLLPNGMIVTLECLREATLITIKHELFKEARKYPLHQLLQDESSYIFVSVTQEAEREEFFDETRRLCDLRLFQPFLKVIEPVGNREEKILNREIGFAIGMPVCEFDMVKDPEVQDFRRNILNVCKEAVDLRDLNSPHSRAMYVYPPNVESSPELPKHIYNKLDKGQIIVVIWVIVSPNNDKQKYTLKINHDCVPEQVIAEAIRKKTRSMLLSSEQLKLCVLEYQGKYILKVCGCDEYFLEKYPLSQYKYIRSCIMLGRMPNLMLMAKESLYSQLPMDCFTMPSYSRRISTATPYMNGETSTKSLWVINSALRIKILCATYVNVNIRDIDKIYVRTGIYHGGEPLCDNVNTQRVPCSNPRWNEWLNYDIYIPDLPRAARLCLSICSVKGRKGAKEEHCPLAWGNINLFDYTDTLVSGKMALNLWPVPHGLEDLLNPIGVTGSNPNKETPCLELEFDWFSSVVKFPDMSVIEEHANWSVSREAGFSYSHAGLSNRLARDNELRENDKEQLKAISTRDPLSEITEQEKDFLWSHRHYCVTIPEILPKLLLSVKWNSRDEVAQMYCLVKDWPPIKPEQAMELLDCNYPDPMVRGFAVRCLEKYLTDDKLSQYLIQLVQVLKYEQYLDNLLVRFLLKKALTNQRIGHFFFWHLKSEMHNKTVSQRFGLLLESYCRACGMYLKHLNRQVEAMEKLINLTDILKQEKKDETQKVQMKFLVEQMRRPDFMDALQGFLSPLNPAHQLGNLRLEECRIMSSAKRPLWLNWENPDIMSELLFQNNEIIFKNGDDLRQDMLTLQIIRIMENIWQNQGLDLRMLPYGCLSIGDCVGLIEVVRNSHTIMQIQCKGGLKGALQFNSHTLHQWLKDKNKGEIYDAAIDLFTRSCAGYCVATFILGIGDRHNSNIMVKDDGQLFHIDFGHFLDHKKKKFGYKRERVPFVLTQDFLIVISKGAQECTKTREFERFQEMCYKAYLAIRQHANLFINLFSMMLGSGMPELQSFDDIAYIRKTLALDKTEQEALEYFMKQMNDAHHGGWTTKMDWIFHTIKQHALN
# Description: as §1, §2, §3
# breast line MDA468 = assay: In vitro cell culture growth assay (MTS), MDA468; type: cell-based; conditions: Homo sapiens, 72 h, MDA468 cells, three days after drug treatment
# Description: Human tumor cell lines used include prostate lines LNCap and PC3MM2, breast lines MDA468, MCF7, renal line HTB44 (A498), colon line HCT116, and ovarian line OVCAR3. Cells were plated in 96-well culture plates. One day following plating, the inhibitors were added to cells. Three days after drug treatment, viable cell densities were determined by metabolic conversion (by viable cells) of the dye MTS, a well-established cell proliferation assay. The assays were performed using an assay kit purchased from Promega Corp. (Madison, Wis.) following the protocol supplied with the kit. The MTS assay results were read in a 96-well plate reader by measuring absorbance at 490 nm. The effect of each treatment was calculated as percent of control growth relative to the vehicle-treated cells grown in the same culture plate.
# [3] = purified human mTOR enzyme, DELFIA format
# [4] = PI3 Kinase γ isoform, fluorescence polarization
# [5] = PI3 Kinase α isoform, fluorescence polarization
Compound,IC50 (Human mTOR (FLAG-TOR)) [nM],IC50 (PI3K [1]; PI3 Kinase γ) [nM],IC50 (PI3K [2]; PI3 Kinase α) [nM],IC50 (Human mTOR (FLAG-TOR); [3]) [nM],IC50 (PI3K [1]; [4]) [nM],IC50 (PI3K [2]; [5]) [nM],IC50 (breast line MDA468) [nM]
"O=C(Nc1ccncc1)Nc1ccc(-c2nc(N3CC4CCC(C3)O4)c3cnn(CC(F)(F)F)c3n2)cc1 [Example 5, 1-{4-[4-(8-oxa-3-azabicyclo[3.2.1]oct-3-yl)-1-(2,2,2-trifluoroethyl)-1H-pyrazolo[3,4-d]pyrimidin-6-yl]phenyl}-3-pyridin-4-ylurea]",0.19,1030,168,,,,
"CNC(=O)Nc1ccc(-c2nc(N3CC4CCC(C3)O4)c3cnn(C4CCC5(CC4)OCCO5)c3n2)cc1 [Example 62, 1-{4-[1-(1,4-dioxaspiro[4.5]dec-8-yl)-4-(8-oxa-3-azabicyclo[3.2.1]oct-3-yl)-1H-pyrazolo[3,4-d]pyrimidin-6-yl]phenyl}-3-methylurea]",0.16,> 10000,2010,,,,
"CNC(=O)Nc1ccc(-c2nc(N3CC4CCC(C3)O4)c3cnn(C4CCC(=O)CC4)c3n2)cc1 [Example 63, 1-methyl-3-{4-[4-(8-oxa-3-azabicyclo[3.2.1]oct-3-yl)-1-(4-oxocyclohexyl)-1H-pyrazolo[3,4-d]pyrimidin-6-yl]phenyl}urea]",0.23,> 10000,,,,,
"CNC(=O)Nc1ccc(-c2nc(N3CC4CCC(C3)O4)c3cnn(C4CCC(O)CC4)c3n2)cc1 (centres unmarked) [Example 64, 1-{4-[1-(4-hydroxycyclohexyl)-4-(8-oxa-3-azabicyclo[3.2.1]oct-3-yl)-1H-pyrazolo[3,4-d]pyrimidin-6-yl]phenyl}-3-methylurea]",0.21,5000,1310,,,,
"CC(C)C(=O)N1CCC(n2ncc3c(N4CC5CCC(C4)O5)nc(-c4ccc(N)cc4)nc32)CC1 [Example 80, 4-[1-(1-isobutyrylpiperidin-4-yl)-4-(8-oxa-3-azabicyclo[3.2.1]oct-3-yl)-1H-pyrazolo[3,4-d]pyrimidin-6-yl]aniline]",100,> 10000,> 10000,,,,
"O=C(Nc1ccncc1)Nc1ccc(-c2nc(N3CC4CCC(C3)O4)c3cnn(CC(F)(F)F)c3n2)cc1 [Example 104, 1-{4-[4-(8-oxa-3-azabicyclo[3.2.1]oct-3-yl)-1-(2,2,2-trifluoroethyl)-1H-pyrazolo[3,4-d]pyrimidin-6-yl]phenyl}-3-pyridin-4-ylurea]",0.16,695,201,,,,
"CNC(=O)Nc1ccc(-c2nc(N3CC4CCC(C3)O4)c3cnn(C4CCC(O)CC4)c3n2)cc1 (centres unmarked) [Example 108, 1-(4-(4-(8-oxa-3-azabicyclo[3.2.1]octan-3-yl)-1-((1r,4r)-4-hydroxycyclohexyl)-1H-pyrazolo[3,4-d]pyrimidin-6-yl)phenyl)-3-methylurea]",0.24,> 10000,882,,,,
"CNC(=O)Nc1ccc(-c2nc(N3CC4CCC(C3)O4)c3cnn([C@H]4CC[C@@H](O)CC4)c3n2)cc1 [Example 109, 1-(4-(4-(8-oxa-3-azabicyclo[3.2.1]octan-3-yl)-1-((1s,4s)-4-hydroxycyclohexyl)-1H-pyrazolo[3,4-d]pyrimidin-6-yl)phenyl)-3-methylurea]",0.3,> 10000,227,,,,
"CCNC(=O)Nc1ccc(-c2nc(N3CC4CCC(C3)O4)c3cnn(C4CCC(OC)CC4)c3n2)cc1 (centres unmarked) [Example 301, 1-ethyl-3-{4-[1-(4-methoxycyclohexyl)-4-(8-oxa-3-azabicyclo[3.2.1]oct-3-yl)-1H-pyrazolo[3,4-d]pyrimidin-6-yl]phenyl}urea]",,,,0.335,> 10000,2030,
"CNC(=O)Nc1ccc(-c2nc(N3CC4CCC(C3)O4)c3cnn(C4CCC(N5CCN(C)CC5)CC4)c3n2)cc1 (centres unmarked) [Example 329, 1-methyl-3-(4-{1-[4-(4-methylpiperazin-1-yl)cyclohexyl]-4-(8-oxa-3-azabicyclo[3.2.1]oct-3-yl)-1H-pyrazolo[3,4-d]pyrimidin-6-yl}phenyl)urea]",,,,1.75,4350,357,
"N-{4-[({4-[1-methyl-4-(8-oxa-3-azabicyclo[3.2.1]oct-3-yl)-1H-pyrazolo[3,4-d]pyrimidin-6-yl]phenyl}carbamoyl)amino]phenyl}acetamide [Example 259]",2.4,2720,1050,,,,
"N~2~,N~2~-dimethyl-N-{4-[({4-[1-methyl-4-(8-oxa-3-azabicyclo[3.2.1]oct-3-yl)-1H-pyrazolo[3,4-d]pyrimidin-6-yl]phenyl}carbamoyl)amino]phenyl}glycinamide [Example 258]",3.95,1410,346,,,,

# The next lines start with results.
IC50 (Human mTOR (FLAG-TOR)) [nM],IC50 (PI3K [1]; PI3 Kinase γ) [nM],IC50 (PI3K [2]; PI3 Kinase α) [nM],IC50 (Human mTOR (FLAG-TOR); [3]) [nM],IC50 (PI3K [1]; [4]) [nM],IC50 (PI3K [2]; [5]) [nM],Compound,IC50 (breast line MDA468) [nM]
,,,0.76,> 10000,1260,"CCNC(=O)Nc1ccc(-c2nc(N3CC4CCC(C3)O4)c3sccc3n2)cc1 [Example 407, 1-ethyl-3-{4-[4-(8-oxa-3-azabicyclo[3.2.1]oct-3-yl)thieno[3,2-d]pyrimidin-2-yl]phenyl}urea]",250
,,,0.31,≥ 10000,324,"O=C(NCCO)Nc1ccc(-c2nc(N3CC4CCC(C3)O4)c3sccc3n2)cc1 [Example 409, 1-(2-hydroxyethyl)-3-{4-[4-(8-oxa-3-azabicyclo[3.2.1]oct-3-yl)thieno[3,2-d]pyrimidin-2-yl]phenyl}urea]",475
,,,1.3,2190,82,"O=C(Nc1ccccc1)Nc1ccc(-c2nc(N3CC4CCC(C3)O4)c3sccc3n2)cc1 [Example 411, 1-{4-[4-(8-oxa-3-azabicyclo[3.2.1]oct-3-yl)thieno[3,2-d]pyrimidin-2-yl]phenyl}-3-phenylurea]",380
,,,100,> 10000,,"Nc1ccc(-c2nc(N3CC4CCC(C3)O4)c3sccc3n2)cc1 [Example 414, 4-[4-(8-oxa-3-azabicyclo[3.2.1]oct-3-yl)thieno[3,2-d]pyrimidin-2-yl]aniline]",30000
,,,61,> 10000,399,"Oc1cccc(-c2nc(N3CC4CCC(C3)O4)c3sccc3n2)c1 [Example 417, 3-[4-(8-oxa-3-azabicyclo[3.2.1]oct-3-yl)thieno[3,2-d]pyrimidin-2-yl]phenol]",7800
,,,34,> 10000,6270,"Oc1ccc(-c2nc(N3CC4CCC(C3)O4)c3sccc3n2)cc1 [Example 418, 4-[4-(8-oxa-3-azabicyclo[3.2.1]oct-3-yl)thieno[3,2-d]pyrimidin-2-yl]phenol]",17000
,,,19.5,5720,322,"CNC(=O)Nc1ccc(-c2nc(N3CC4CCC(C3)O4)c3sc(CN4CCN(C)CC4)cc3n2)cc1 [Example 423, 1-methyl-3-(4-{6-[(4-methylpiperazin-1-yl)methyl]-4-(8-oxa-3-azabicyclo[3.2.1]oct-3-yl)thieno[3,2-d]pyrimidin-2-yl}phenyl)urea]",1000
